One series has as its system CYP1A. Nature of the series: Cytochrome P450 induction assay in rat primary hepatocytes, CYP1A. The series is classed as in vitro ADME. Particulars: 1.0 μM, 3 days. An excerpt:
%Activity=(averagearearatiooftreated/averagearearatioofbasalcontrol)x100

Series [1] in a line: Cytotoxicity in rat primary hepatocytes (resazurin). To be noted: male, Wistar, rat, freshly isolated rat primary hepatocytes.
The test system of a further series is NCI leukemia cell lines. Particulars: cited from earlier work.
Series [2] concerns NCI60 human cancer cell line panel. Particulars: ref cisplatin NSC number 119875; cited from earlier work.
Series [3] deals with BGC823 (gastric cancer cells) xenograft. More on the design: method as in earlier work. Particulars: cited from earlier work.

Where only a bound is given, the exact number is not on record here.

Take `Cc1ccc2cc3c(ccc4ccccc43)c3c2c1CC3` [3-Methyl cholanthrene, reference compound]: the “Fold induction CYP1A” value in the series with CYP1A was determined as 10.9. In addition, in the series with CYP1A (rat, rat primary hepatocytes, probe phenacetin (100 μM in HBSS)), the fold induction at 3 days, 1 µM is > 10.

Take `CC/C(=C(\c1ccccc1)c1ccc(OCCN(C)C)cc1)c1ccccc1` [Tamoxifen, reference compound]: half-maximal inhibition in series [1] (IC50 at 72 h) was put at 5.1 µM.

Take `O=C([O-])c1ccccc1C(=O)[O-].[Cu+2].c1cnc2c(c1)ccc1cccnc12` [[Cu(o-phthalate)(phenanthroline)]]: the “sensitivity of most NCI leukemia cell lines” value in the series on NCI leukemia cell lines is given as “resistant”.

Turning to `N.N.[Cl][Pt][Cl]` [cisplatin], the concentration for 50% growth inhibition (GI50) in series [2] is 1.49 µM. Besides, in series [3] (4 mg/kg), the organ damage entry was “considerable damage to liver and kidney”; the “xenograft growth, compared with [Ru(dmb)2(salH)]PF6” value is on record as “slightly less effective”.

As for [Ru(dmb)2(salH)]PF6, in series [3] (5 mg/kg), the “toxicity compared to cisplatin” value was “insignificant nephrotoxicity and nephrotoxicity”; the xenograft growth result is given as “significantly suppressed”.

For orientation: fold induction means the ratio of treated to control signal. A high value points to a strong induction. One may read the IC50 as the concentration that gives 50% inhibition. A low value points to higher potency. The term GI50 denotes the concentration that inhibits growth by half.

Values taken from paper PMC5766233, “Ternary copper(II) complex: NCI60 screening, toxicity studies, and evaluation of efficacy in xenograft models of nasopharyngeal carcinoma” (PLoS ONE, 2018).
